Like-named read-outs stand apart in the source and are kept apart here.
What was measured:
[1] = system: Venturia inaequalis; assay: Venturia test (apple)/protective; assay type: in vivo; conditions: 240 h, protective, application rate 100 g/ha, evaluation 10 days after inoculation, read-out: % efficacy
Protocol: (§1) • Solvents: 24.5 parts by weight of acetone 24.5 parts by weight of dimethylacetamide • Emulsifier: 1.0 part by weight of alkylaryl polyglycol ether
(§2) To produce a suitable preparation of active compound, 1 part by weight of active compound is mixed with the stated amounts of solvents and emulsifier, and the concentrate is diluted with water to the desired concentration.
To test for protective activity, young plants are sprayed with the preparation of active compound at the stated application rate. After the spray coating has dried on, the plants are inoculated with an aqueous conidia suspension of the apple scab pathogen Venturia inaequalis and then remain in an incubation cabin at about 20° C. and 100% relative atmospheric humidity for one day.
The plants are then placed in a greenhouse at about 21° C. and a relative atmospheric humidity of about 90%.
Evaluation is carried out 10 days after the inoculation. 0% means an efficacy which corresponds to that of the control, whereas an efficacy of 100% means that no infection is observed.

[2] = system: Botrytis cinerea; assay: Botrytis test (bean)/protective; assay type: in vivo; conditions: 48 h, protective, application rate 500 g/ha, evaluation 2 days after inoculation, read-out: % efficacy
Protocol: as §1, §2
To test for protective activity, young plants are sprayed with the preparation of active compound at the stated application rate. After the spray coating has dried on, 2 small pieces of agar colonized by Botrytis cinerea are placed onto each leaf. The inoculated plants are placed in a dark chamber at about 20° C. and 100% relative atmospheric humidity.
2 days after the inoculation, the size of the infected areas on leaves is evaluated. 0% means an efficacy which corresponds to that of the control, whereas an efficacy of 100% means that no infection is observed.

[3] = logP determination by HPLC on a reversed-phase column (C 18), EEC Directive 79/831 Annex V.A8; assay type: physicochemical; conditions: reversed-phase HPLC column (C 18)
Protocol: The logP values given in the preparation examples and tables above are determined in accordance with EEC Directive 79/831 Annex V.A8 by HPLC (High Performance Liquid Chromatography) using a reversed-phase column (C 18). Temperature: 43° C. The determination is carried out in the acidic range at pH 2.3 using the mobile phases 0.1% aqueous phosphoric acid and acetonitrile; linear gradient from 10% acetonitrile to 90% acetonitrile. Calibration is carried out using unbranched alkan-2-ones (having 3 to 16 carbon atoms) with known logP values (determination of the logP values by the retention times using linear interpolation between two successive alkanones).

[4] = system: Sphaerotheca fuliginea; assay: Sphaerotheca test (cucumber)/protective; assay type: in vivo; conditions: Podosphaera fuliginea, 168 h, protective, application rate 100 g/ha, evaluation 7 days after inoculation, read-out: % efficacy
Protocol: • Solvents: 24.5 parts by weight of acetone 24.5 parts by weight of dimethylacetamide • Emulsifier: 1 part by weight of alkylaryl polyglycol ether
as §2
To test for protective activity, young plants are sprayed with the preparation of active compound at the stated application rate. After the spray coating has dried on, the plants are inoculated with an aqueous spore suspension of Sphaerotheca fuliginea. The plants are then placed in a greenhouse at about 23° C. and a relative atmospheric humidity of about 70%.
Evaluation is carried out 7 days after the inoculation. 0% means an efficacy which corresponds to that of the control, whereas an efficacy of 100% means that no infection is observed.

[5] = system: Alternaria solani; assay: Alternaria test (tomato)/protective; assay type: in vivo; conditions: 168 h, protective, application rate 750 g/ha, evaluation 7 days after inoculation, read-out: % efficacy
Protocol: • Solvent: 49 parts by weight of N,N-dimethylformaide • Emulsifier: 1 part by weight of alkylaryl polyglycol ether To produce a suitable preparation of active compound, 1 part by weight of active compound is mixed with the stated amounts of solvent and emulsifier, and the concentrate is diluted with water to the desired concentration. To test for protective activity, young tomato plants are sprayed with the preparation of active compound at the stated application rate. 1 day after the treatment, the plants are inoculated with an aqueous spore suspension of Alternaria solani and then remain at 100% relative humidity for 24 hours. The plants then remain at about 96% relative atmospheric humidity and a temperature of 20° C. Evaluation is carried out 7 days after the inoculation. 0% means an efficacy which corresponds to that of the control, whereas an efficacy of 100% means that no infection is observed.

[6] = pH 2.3, HPLC reversed-phase C 18, 43° C., 0.1% aqueous phosphoric acid/acetonitrile, read-out: logP (pH 2.3)
[7] = Table 1, acidic range pH 2.3, HPLC reversed-phase C 18, 43° C., read-out: logP

chromatographic logP [3, 6]	melting point [°C]	chromatographic logP [3, 7]	SMILES	Emax at 100 g/ha [1] [%]	Emax at 500 g/ha [2] [%]	Emax at 100 g/ha [4] [%]	Emax at 750 g/ha [5] [%]
3.61			CC(=O)N(C(=O)c1sc(C)nc1C(F)F)c1ccccc1-c1ccc(Br)cc1 [Example 1, N-acetyl-N-(4′-bromo-1,1′-biphenyl-2-yl)-4-(difluoromethyl)-2-methyl-1,3-thiazole-5-carboxamide]	100	98	100	
3.34	151		Cc1nc(C(F)F)c(C(=O)Nc2ccccc2-c2ccc(Br)cc2)s1 [II-1, N-(4′-bromo-1,1′-biphenyl-2-yl)-2-methyl-4-(difluoromethyl)-1,3-thiazole-5-carboxamide]				
		4.28	Cc1nc(C(F)F)c(C(=O)N(C(=O)c2sc(C)nc2C(F)F)c2ccccc2-c2cc(Cl)cc(Cl)c2)s1 [Example 4]	99	94	100	95
3.26	144		Cc1nc(C(F)F)c(C(=O)Nc2ccccc2-c2ccc(Cl)cc2)s1 [II-2, N-(4′-chloro-1,1′-biphenyl-2-yl)-2-methyl-4-(difluoromethyl)-1,3-thiazole-5-carboxamide]				
3.34			Cc1nc(C(F)F)c(C(=O)N(C)c2ccccc2-c2ccc(Cl)cc2)s1 [Example 2]			95	
		3.44	Cc1nc(C(F)F)c(C(=O)N(C)c2ccccc2-c2ccc(Br)cc2)s1 [Example 6]			100	
